Test results as given in patent publication US12226432B2, “Polymer nanoparticle, polymer composition, method of making a polymer nanoparticle, method for treatment of bacterial biofilms, and method for detection of bacterial biofilms” (UNIVERSITY OF MASSACHUSETTS, priority 2016, dated 2025).

Columns and labels:
[1] = test system: E. clocae complex CD-1412; assay: Checkerboard titration, antibiotic-nanoparticle synergy, CD-1412; assay type: cell-based, E. cloacae; settings: in combination with polymer nanoparticles, FIG. 20
Method: (§1) To assess possible synergy between antibiotics and polymeric nanoparticles, two-dimensional checkerboard titrations were performed using a micro-dilution method. […] The checkerboard titrations were performed in a set of three independent experiments, repeated on different days.
(§2) Antibiotic-nanoparticle interaction was determined by calculating the fractional inhibitory concentration of antibiotics (FICAb) and NPs (FICNP) according to the following equations: FICAb=(MIC of antibiotic and NP combination)÷(MIC of antibiotic alone) FICNP=(MIC of antibiotic and NP combination)÷(MIC of NP alone) FICIcombination=FICAb+FICNP
(§3) FICAb was plotted against FICNP. A concave curve indicates synergy, whereas a convex curve indicates antagonism. Synergy was defined as FICI values ≤0.5, antagonism by FICI values >4.0, and additive interaction by FICI values between >0.5 and 4.0. The experiments were conducted across four different planktonic bacteria strains (E. clocae complex “CD-1412”; Pseudomonas aeruginosa “CD-40”; E. coli “CD-549”; and Acinetobacter species “CD-575”). […] In the presence of polymer nanoparticles, colistin's uptake in biofilms is enhanced nearly 3.5 times.

[2] = test system: Pseudomonas aeruginosa CD-40; assay: Checkerboard titration, antibiotic-nanoparticle synergy, CD-40; assay type: cell-based; settings: in combination with polymer nanoparticles, FIG. 20
Method: as §1, §2, §3

[3] = test system: E. coli CD-549; assay: Checkerboard titration, antibiotic-nanoparticle synergy, CD-549; assay type: cell-based; settings: in combination with polymer nanoparticles, FIG. 20
Method: as §1, §2, §3

[4] = test system: Acinetobacter species CD-575; assay: Checkerboard titration, antibiotic-nanoparticle synergy, CD-575; assay type: cell-based; settings: in combination with polymer nanoparticles, FIG. 20
Method: as §1, §2, §3

[5] = test system: red blood cells (RBCs); assay: Hemolysis of red blood cells (HC50); assay type: cell-based, human
Method: Determination of Hemolysis of Cationic Polymers: Citrate-stabilized human whole blood (pooled, mixed gender) was purchased from Bioreclamation LLC, NY and processed as soon as received. 10 milliliters of phosphate buffered saline (PBS) was added to the blood and centrifuged at 5000 rpm for 5 minutes. The supernatant was carefully discarded and the red blood cells (RBCs) were dispersed in 10 milliliters of PBS. This step was repeated at least five times. The purified RBCs were diluted in 10 milliliters of PBS and kept on ice during the sample preparation. 0.1 milliliter of RBC solution was added to 0.4 milliliters of polymer solution in PBS in a 1.5 milliliter centrifuge tube (Fisher) and mixed gently by pipetting. RBCs incubated with PBS and water was used as negative and positive controls, respectively. All polymer samples as well as controls were prepared in triplicate. The mixture was incubated at 37° C. for 30 minutes while shaking at 150 rpm. After incubation period, the solution was centrifuged at 4000 rpm for 5 minutes and 100 microliters of supernatant was transferred to a 96-well plate. The absorbance value of the supernatant was measured at 570 nm using a microplate reader (SpectraMax M2, Molecular devices) with absorbance at 655 nm as a reference. The percent hemolysis was calculated using the following formula: […]

[6] = test system: NIH 3T3 fibroblast cells; assay type: cell-based
Method: The ability to eradicate biofilms on human tissue or organs is also of significant importance. An in vitro co-culture model of mammalian fibroblast cells with biofilms grown over them was used. […] Next, P. aeruginosa bacteria was seeded on a confluent monolayer of NIH 3T3 fibroblast cells overnight to generate biofilms prior to treatment.

[7] = test system: uropathogenic E. coli (CD-2); assay type: cell-based; settings: serial passaging at sub-MIC, CD-2 E. coli
Method: The culture was then harvested and tested for MIC as describe above. E. coli CD-2 was cultured without polymer as well every time as a control for comparison of MICs.
Bacteria are capable of acquiring resistance quickly towards antibiotics and other antimicrobials, minimizing their therapeutic prospects in clinical settings. […] The resulting bacterial population was defined as the first generation, harvested, and its MIC was evaluated. Subsequently, a second generation was produced by exposing first generation with 66% MIC dosage of polymers. […] Similar experiments were conducted on ciprofloxacin (quinolone) and ceftazidime ([…]), clinically relevant antibiotics.

How did the “antibiotic-nanoparticle interaction (FICI)” value [1] turn out when colistin was run?
Its value is “therapeutically synergistic”.

What about the “antibiotic-nanoparticle interaction (FICI)” value [2] of the same compound?
Its value is “therapeutically synergistic”.

What about the “antibiotic-nanoparticle interaction (FICI)” value [3] of the same compound?
The value was “therapeutically synergistic”.

What about the “antibiotic-nanoparticle interaction (FICI)” value [4] of the same compound?
Its value is “therapeutically synergistic”.

How did the HC50 [5] turn out when “poly(oxanorbomeneimide)undecyl trimethylammonium analog [Example 5]” was run?
Its HC50 is 4700 µg/mL.

What about the “toxicity to NIH 3T3 fibroblast cells” value [6] of the same compound?
The value was “No significant toxicity”.

How did the “increase in the MICs after serial passaging” value [7] turn out when `CC(C)(O/N=C(\C(=O)N[C@@H]1C(=O)N2C(C(=O)[O-])=C(C[n+]3ccccc3)CS[C@H]12)c1csc(N)n1)C(=O)O` [ceftazidime] was run?
Its value is 4,200 fold.

For `O=C(O)c1cn(C2CC2)c2cc(N3CCNCC3)c(F)cc2c1=O` [ciprofloxacin], which “increase in the MICs after serial passaging” value [7] is on record?
Its value is 33,000 fold.
